For assay [1], the target named is T1, STP10 (Arabidopsis thaliana, UniProt Q9LT15).
T1 construct: full length 514 residues; S. cerevisiae expression, C-terminal thrombin site and His10 tag, tag cut with thrombin for structure (model residues 21-507, monomer); STP10 gene subcloned for Xenopus oocyte and yeast EBY-WV4000 uptake
T1 sequence (Q9LT15 1-514): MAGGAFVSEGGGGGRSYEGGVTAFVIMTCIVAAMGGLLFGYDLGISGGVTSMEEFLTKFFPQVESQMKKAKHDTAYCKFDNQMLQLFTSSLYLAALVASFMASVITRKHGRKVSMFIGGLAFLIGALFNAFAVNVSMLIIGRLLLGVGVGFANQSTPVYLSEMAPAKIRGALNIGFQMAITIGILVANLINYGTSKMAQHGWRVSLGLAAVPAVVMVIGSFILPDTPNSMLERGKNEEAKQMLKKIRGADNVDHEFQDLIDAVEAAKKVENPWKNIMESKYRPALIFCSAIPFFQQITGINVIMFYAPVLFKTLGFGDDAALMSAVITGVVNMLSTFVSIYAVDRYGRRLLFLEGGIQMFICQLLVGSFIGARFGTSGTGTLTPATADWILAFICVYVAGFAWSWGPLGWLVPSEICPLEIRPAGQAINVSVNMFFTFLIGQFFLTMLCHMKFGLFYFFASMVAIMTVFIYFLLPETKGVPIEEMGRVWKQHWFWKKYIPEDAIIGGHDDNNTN
As to the kind of experiment: competition with [3H]-D-glucose uptake in yeast EBY-WV4000. It is filed as cell-based. The note with it: pH 5.0; 30 °C; 250 µM competitor against 10 µM D-glucose.

In assay [2] the target is T1, STP10. Briefly: X-ray crystal structure, […] Å. The note with it: central binding site; outward occluded state; lipidic cubic phase, pH 4.5.
In assay [3] the target is T1, STP10. Briefly: isothermal titration calorimetry, purified protein, one-site model. The settings on record: pH 5.5; 20 °C; 0.03% DDM; read-out: apparent Kd. On the technique in general: In ITC the heat of successive injections is recorded.
The target of assay [4] is T1, STP10. As to the kind of experiment: [3H]-2-deoxy-D-glucose uptake in yeast EBY-WV4000. The assay is classed as cell-based. The note with it: pH 5.0; 30 °C; labelled compound.

On to `OC[C@H]1OC(O)[C@@H](O)[C@@H](O)[C@@H]1O` (some centres unmarked) [mannose], for which the competition entry in assay [1] is “Competition assays using radioactively labeled glucose confirm galactose and mannose as potential substrates”.
Consider `OC[C@H]1OC(O)[C@H](O)[C@@H](O)[C@H]1O` (some centres unmarked) [galactose], for which, in assay [1], the competition result was “Competition assays using radioactively labeled glucose confirm galactose and mannose as potential substrates”.
In the case of `OC[C@H]1OC(O)[C@H](O)[C@@H](O)[C@@H]1O` (some centres unmarked) [glucose], the “X-ray crystal structure, 2.4 Å” value in assay [2] is recorded as “contains unambiguous density for glucose”. For the same molecule, in assay [3], the Kd stood at 3.2 µM.
For the molecule `OC[C@H]1OC(O)C[C@@H](O)[C@@H]1O` (some centres unmarked) [2-deoxyglucose], in assay [4], the “[3H]-2-deoxy-D-glucose uptake in yeast EBY-WV4000” value is “The protein can transport the non-metabolized glucose analog 2-deoxyglucose”.

The values are drawn from PMC6345825, “Crystal structure of the plant symporter STP10 illuminates sugar uptake mechanism in monosaccharide transporter superfamily” (Nature Communications, 2019).
